# According to PMC9409351, “Differential Ganglioside and Cholesterol Depletion by Various Cyclodextrin Derivatives and Their Effect on Synaptosomal Glutamate Release” (International Journal of Molecular Sciences, 2022):
# Read-outs that look alike come from different tables or passages of the source.
# What was measured:
# [1] = test system: gangliosides (GM1, GD1a, GD1b, GT1b, GQ1b) of rat cerebral synaptosomes; assay: Ganglioside depletion from synaptosomes, remaining content by capillary electrophoresis; assay type: cell-based; conditions: for IC50: rat cerebral synaptosomes, 40 min exposure
# Experimental: Adult male Wistar rats purchased from Toxi-Coop Ltd. (Budapest, Hungary) were used in the experiments. Cerebral synaptosomes were prepared according to Modi and co-workers with the following modifications. Animals were decapitated and the brain was removed rapidly. Isotonic sucrose buffer (0.32 M sucrose, 4 mM HEPES-NaOH, pH 7.4) was used to homogenize the cerebrum with a Potter S Homogenizer (B. Braun, Melsungen, Germany) with 15 strokes at 1000 rpm. The homogenate was centrifuged (1500× g, 10 min, 4 °C) and the pellet was resuspended in sucrose buffer and centrifuged with the same parameters again. The two supernatants were combined and centrifuged (20,000× g, 10 min, 4 °C) to pellet the crude synaptosomes. The resulting supernatant was discarded and the pellet was washed again with an equal volume of sucrose buffer and then pelleted by centrifugation (20,000× g, 10 min, 4 °C). Synaptosomes were stored frozen using cryopreservation buffer and the slow freezing method to preserve their physiological state and integrity. Briefly, synaptosome pellets were resuspended in isotonic sucrose buffer containing 10% DMSO (v/v) and 10% FBS (v/v). To slow down the freezing process at −80 °C, synaptosomes were placed in a 3 cm thick-walled polystyrene box with a lid. Synaptosomes were stored at −80 °C until use. Immediately prior to the experiments, synaptosomes were rapidly thawed in a 37 °C water bath and pelleted by centrifugation (20,000× g, 10 min, 4 °C) to remove the cryopreservation buffer. The pellet was resuspended in isotonic HEPES-glucose buffer (10 mM HEPES-NaOH, 130 mM NaCl, 5.4 mM KCl, 1.3 mM CaCl2, 0.9 mM MgCl2, 5.5 mM glucose, pH 7.4) and aliquoted according to the experimental design.
# For all types of experiments, except for the glutamate release measurements, vehicle-treated (control) and CD-treated synaptosomes were incubated in 500 μL HEPES-glucose buffer with or without CDs, respectively, for 40 min at 37 °C. […] After incubation, the synaptosomes were centrifuged (20,000× g, 5 min, 4 °C) and used immediately for further analysis. A slightly different incubation method used in the glutamate release measurements is described in the corresponding section. Across all types of experiments, osmolarities of the CD solutions were adjusted and they were between 290 and 310 mOsm. At least three parallel measurements were carried out.
# The major neuronal ganglioside (GM1, GD1a, GD1b, GT1b, GQ1b) content of the rat cerebral synaptosome samples were measured by our previously published validated method. Briefly, after the CD treatments, gangliosides were extracted from 10 mg synaptosomes by liquid–liquid extraction. Ganglioside extracts were evaporated to dryness under a gentle stream of nitrogen (Zymark TurboVap LV, Hopkinton, MA, USA) in a 37 °C water bath. The dry ganglioside extract yielded from 10 mg synaptosomes was resuspended in 60 µL water, and centrifuged (20,000× g, 5 min, 4 °C) to remove the precipitate and the supernatant was analyzed by CE.
# Ganglioside analysis was performed on a P/ACE MDQ capillary electrophoresis system (Beckman Coulter Inc., Brea, CA, USA) with UV detection at 200 nm. Uncoated fused silica capillaries with 75 µm internal diameter, […], respectively (Agilent Technologies, Santa Clara, CA, USA), were used. Separation was achieved by applying +25 kV voltage in a separation buffer containing 20 mM RAMEA and 100 mM sodium borate at pH 10.0. Ganglioside depletion in the CD-treated synaptosomes was calculated as the percentage of the ganglioside content of the vehicle-treated synaptosomes.
# Data were analyzed by GraphPad Prism 8 (GraphPad Software, La Jolla, CA, USA). Concentration–response curves were constructed by the nonlinear regression method. One-way ANOVA followed by Bonferroni’s post hoc test was used for the data analysis in the case of the glutamate release experiments. […]
# [2] = test system: rat cerebral synaptosomes; assay: Basal and 4-aminopyridine-evoked glutamate release from synaptosomes (CE-LIF); assay type: cell-based; conditions: 10 mM DIMEB, 33 mM HPBCD, 26 mM RAMEA, 85 mM HPACD; 40 min exposure; 1 mM 4-AP, 8 min
# Experimental: After thawing and centrifugation, the cryopreserved synaptosomes were resuspended in isotonic HEPES-glucose buffer. Synaptosomal suspensions corresponding to 10 mg of synaptosomes were centrifuged to an 8-well strip plate (15 min, 2500× g, 4 °C) and the supernatant was discarded. Vehicle-treated (control) and CD-treated synaptosomes were incubated in 200 μL HEPES-glucose buffer with or without CDs, respectively, for 40 min at 37 °C. […] After incubation, the supernatant was replaced with fresh HEPES-glucose buffer containing 40 µM DL-TBOA (a competitive, non-transportable blocker of excitatory amino acid transporters that inhibits the reuptake of released glutamate) and equilibrated for 2 × 10 min at 37 °C with buffer replacement. After equilibration, the buffer was replaced by fresh HEPES-glucose buffer in the case of unstimulated groups. […] Following stimulation, aliquots were taken from the buffer at 8 min and stored at −20 °C until CE analysis. The glutamate content of the aliquots was analyzed by a capillary electrophoresis-laser induced fluorescence method developed in our laboratory. Briefly, samples were subjected to derivatization with NBD-F (1 mg/mL final concentration) in 20 mM borate buffer, pH 8.5 for 20 min at 65 °C. […] Glutamate release was normalized to the baseline release from the vehicle-treated, unstimulated synaptosomes. Data were analyzed by GraphPad Prism 8 (GraphPad Software, La Jolla, CA, USA). Concentration–response curves were constructed by the nonlinear regression method. One-way ANOVA followed by Bonferroni’s post hoc test was used for the data analysis in the case of the glutamate release experiments. All data are presented as means ± SEM of at least three parallel measurements. Differences were considered significant if p < 0.05.
# [3] = total = sum of individual gangliosides, read-out: Total ganglioside depletion IC50
Compound,Ganglioside extraction at 10 mM ([1]; 10 mM),Ganglioside extraction at 30 mM ([1]; 30 mM),IC50 ([1]; read-out: GD1a depletion IC50) [mM],IC50 ([1]; read-out: GD1b depletion IC50) [mM],IC50 ([1]; read-out: GM1 depletion IC50) [mM],IC50 ([1]; read-out: GQ1b depletion IC50) [mM],IC50 ([1]; read-out: GT1b depletion IC50) [mM],"IC50 [1, 3] [mM]",4-AP-evoked (stimulated) glutamate release [2],"IC50 ([1]; 40 min, read-out: GD1a depletion IC50) [mM]","IC50 ([1]; 40 min, read-out: GD1b depletion IC50) [mM]","IC50 ([1]; 40 min, read-out: GM1 depletion IC50) [mM]","IC50 ([1]; 40 min, read-out: GQ1b depletion IC50) [mM]","IC50 ([1]; 40 min, read-out: GT1b depletion IC50) [mM]","IC50 ([1]; 40 min, total = sum of individual gangliosides, read-out: Total ganglioside depletion IC50) [mM]",Ganglioside loss at 50% cholesterol depleting concentration ([1]; at 50% cholesterol depleting concentration),Ganglioside extraction at highest examined concentration ([1]; 100 mM)
"COC[C@H]1O[C@@H]2O[C@H]3[C@H](O)[C@@H](OC)[C@@H](O[C@H]4[C@H](O)[C@@H](OC)[C@@H](O[C@H]5[C@H](O)[C@@H](OC)[C@@H](O[C@H]6[C@H](O)[C@@H](OC)[C@@H](O[C@H]7[C@H](O)[C@@H](OC)[C@@H](O[C@H]8[C@H](O)[C@@H](OC)[C@@H](O[C@H]1[C@H](O)[C@H]2OC)O[C@@H]8COC)O[C@@H]7COC)O[C@@H]6COC)O[C@@H]5COC)O[C@@H]4COC)O[C@@H]3COC [DIMEB, heptakis(2,6-di-O-methyl)-beta-cyclodextrin]",approximately 50%,Nearly total extraction,9.7,14.5,15,11.4,8.7,10.5,not detected,,,,,,,,
"CC(O)COC[C@H]1O[C@@H]2O[C@H]3[C@H](O)[C@@H](O)[C@@H](O[C@H]4[C@H](O)[C@@H](O)[C@@H](O[C@H]5[C@H](O)[C@@H](O)[C@@H](O[C@H]6[C@H](O)[C@@H](O)[C@@H](O[C@H]7[C@H](O)[C@@H](O)[C@@H](O[C@H]8[C@H](O)[C@@H](O)[C@@H](O[C@H]1[C@H](O)[C@H]2O)O[C@@H]8COCC(C)O)O[C@@H]7COCC(C)O)O[C@@H]6COCC(C)O)O[C@@H]5COCC(C)O)O[C@@H]4COCC(C)O)O[C@@H]3COCC(C)O (stereo partly drawn) [HPBCD, (2-hydroxypropyl)-beta-cyclodextrin]",,,,,,,,,still evoked glutamate release,83.7,86.6,80.8,85.1,80.1,83.3,~ 5%,
(2-hydroxypropyl)-alpha-cyclodextrin [HPACD],,,72.9,90.6,86.7,61.2,,85.1,not detected,,,,,,,,~ 60%
randomly methylated alpha-cyclodextrin [RAMEA],,,25.1,26.4,29.1,30.3,24.2,26,not detected,,,,,,,,
